Converted amounts (≈) assume the structure as drawn. Where two headings read alike, the source gives them in different places.
What was measured:
[1] = Phototoxicity (oral dose, UVA exposure, ear erythema and oedema); format: in vivo; settings: Swiss Albino mice, UVA 4 hours for 4 consecutive days
Protocol: The stock solutions for different doses were prepared freshly on the day of experimentation. Appropriate concentration of each dose was chosen to give a constant dosage volume of 0.3-0.4 ml/20 g body weight of mouse. The treated mice were exposed to UVA light source immediately after dosing for 4 hours and for 4 consecutive days. The mean light intensity in the UVA chamber was adjusted to 0.9-1.2 mW/cm^2. […] A phototoxic dose is one which causes ear erythema and oeadema.

[2] = test system: Fluoroquinolone-Resistant Strains; experiment: In-vitro antimicrobial test (MIC, two-fold serial agar dilution, NCCLS), Table 18; format: cell-based
Protocol: (§1) The test method was in accordance with the standard NCCLS protocol (Methods for Dilution Antimicrobial Susceptibility Tests for Bacteria that grow Aerobicially, Approved Standards, M7-A5, Fifth Edition, January 2000).
(§2) The antibacterial activities (minimum inhibitory concentration: MIC, […]) were determined by using the two-fold serial agar dilution method recommended by NCCLS. The media used for preculture and main culture were Tryptic Soya broth (Difco) and Mueller Hinton medium (Difco), respectively. The Mueller Hinton agar was supplemented with 5% sheep blood for streptococci. Overnight cultures were diluted with buffered saline (pH 7.2) to the final cell density of 5×10^6-10^7 CFU/ml, and each bacterial suspension was applied with a replicator (Denley's multipoint inoculator, UK) onto a series of Mueller-Hinton agar plates containing antibacterial agents at various concentrations. Final inoculum was approximately 10^4 CFU/spot. The plates were incubated for 18 hrs at 37° C. The MIC was defined as the lowest concentration of an antibacterial agent that inhibits the development of visible microbial growth on agar.

MRSA 5027 = experiment: Resistance to resistance development (sequential passages through drug-containing media); format: cell-based; settings: Staphylococcus aureus
[3] = test system: Multidrug-Resistant (MDR) Pneumococcal Infections; experiment: In-vivo antimicrobial test, systemic infection model (mouse septicemia), Table 22; parameters: species or system Swiss male and female mice; settings: Streptococcus pneumoniae, po, oral dosing 1 hour and 5 hours post-infection, survival on day 7, strain resistant to β-lactams, macrolides and fluoroquinolones, read-out: ED50 p.o., MDR S. pneumoniae 718
Protocol: The in vivo efficacy was studied through mouse septicemia model of infection in Swiss male and female mice (4 weeks old, 20+2 g weight) using 6 animals in each group. Infective organisms were inoculated intraperitonially. Compound were administered by oral route 1 hour and 5 hours post-infection. […] Appropriate comparators were included in the study.

J 744 (mouse macrophage) = experiment: Cytotoxicity test (Alamar blue), J 744 cells, Table 23; format: cell-based; settings: 3 hrs drug exposure, further 96 hrs incubation
Protocol: Compounds were evaluated for their cytotoxic potential against two celllines viz. […] Cytotoxic drugs inhibit this reaction resulting into blue coloured well. Minimum drug concentration inhibiting Alamar blue color change i.e. resulting into blue coloured wells for a given drug is considered cytotoxic concentration.

[4] = test system: V79 (Chinese Hamster Lung); experiment: Cytotoxicity test (Alamar blue), V79 cells, Table 23; format: cell-based; settings: 3 hrs drug exposure, further 96 hrs incubation
Protocol: Compounds were evaluated for their cytotoxic potential against two […] viz. […] Cells were grown for 3-4days in a culture flask using D-MEM (Dulbecco's Modified Eagle. […] Freshly grown cells were distributed in microtiter plates at a cell density of 10^5-10^6 cells/well and allowed to […] form monolayer by incubating the microtiter plate at […] for 24 hrs. […] Following 3 hrs. of drug exposure, cell were washed with D-MEM and incubated further for 96 hrs. Cytotoxic effects of drugs were monitored through daily microscopic observation and by ascertaining the metabolic status through redox indicator Alamar blue. Healthy actively metabolising cells bring about colour change of Alamar blue from blue to pink within an overnight incubation. Cytotoxic drugs inhibit this reaction resulting into blue coloured well. Minimum drug concentration inhibiting Alamar blue color change i.e. resulting into blue coloured wells for a given drug is considered cytotoxic concentration.

[5] = test system: Fluoroquinolone Sensitive Strains; experiment: In-vitro antimicrobial test (MIC, two-fold serial agar dilution, NCCLS), Table 17; format: cell-based
[6] = test system: Clinical Isolate MRSA 5076 with Mutations in DNA Gyrase and Topoisomerase IV as well as bearing an Efflux Pump; experiment: microbe, parasite or virus in culture; format: cell-based; settings: for MIC: Staphylococcus aureus, ATCC 25293 / MRSA, read-out: MICs, S. aureus (sensitive) ATCC 25293
Protocol: as §1, §2

[7] = test system: Trovafloxacin-Resistant and Vancomycin-Resistant Enterococci; experiment: In-vitro antimicrobial test (MIC, two-fold serial agar dilution, NCCLS), Table 19; format: cell-based
Description: The comparative antimicrobial activity of representative compounds, of the invention and reference compounds against various sensitive and resistant microorganisms is given in Tables 17 to 20. The test method was in accordance with the standard NCCLS protocol (Methods for Dilution Antimicrobial Susceptibility Tests for Bacteria that grow Aerobicially, Approved Standards, M7-A5, Fifth Edition, January 2000).
as §2

[8] = Staphylococcus aureus, MRSA, MRSA 032
[9] = Streptococcus pneumoniae, FQ^R S. pneumoniae 718

Question: Which phototoxic dose [1] does the source give for `C[C@@H]1CN(c2c(F)c(N)c3c(=O)c(C(=O)O)cn(C4CC4)c3c2F)C[C@H](C)N1` [sparfloxacin] here?
Answer: 25 mg/kg

Question: For `COc1c(N2CCC(N)C(C)(C)C2)c(F)cc2c(=O)c(C(=O)O)cn(C3CC3)c12.Cl` (racemic) [Compound 18, (±)-1-Cyclopropyl-6-fluoro-1,4-dihydro-8-methoxy-7-(4-amino-3,3-dimethyl-1-piperidinyl)-4-oxo-quinoline-3-carboxylic acid hydrochloride], which MIC [2, 8] is on record?
Answer: 0.8 µg/mL

Question: What about the MIC [2, 9] of the same molecule?
Answer: 0.8 µg/mL

Question: And the MIC (MRSA 5027; read-out: MIC against MRSA 5027, initially)?
Answer: 0.4 µg/mL

Question: What about the MIC (MRSA 5027; read-out: MIC against MRSA 5027 after 10 passages in drug containing medium) of the same molecule?
Answer: 0.4 µg/mL

Question: And the ED50 [3]?
Answer: 30 mg/kg

Question: What about the “Cytotoxic concentration, J 744 Macrophage” value (J 744 (mouse macrophage)) of the same molecule?
Answer: >1000 µg/mL

Question: And the “Cytotoxic concentration, V 79 CHL” value [4]?
Answer: >1000 µg/mL

Question: Which MICs ([5]; E. coli ATCC 25922, hydrochloride) does the source give for `Cc1c(N2CCC(N)C(C)(C)C2)c(F)cc2c(=O)c(C(=O)O)cn(C3CC3)c12.Cl` (single isomer, unassigned; (-)) [Compound 110, (−)-1-Cyclopropyl-6-fluoro-1,4-dihydro-8-methyl-7-(4-amino-3,3-dimethyl-1-piperidinyl)-4-oxo-quinoline-3-carboxylic acid hydrochloride] here?
Answer: 0.025 µg/mL

Question: And the MICs ([5]; E. faecalis ATCC 29212, hydrochloride)?
Answer: 0.05 µg/mL

Question: And the MICs ([5]; MSSA ATCC 25923)?
Answer: 0.025 µg/mL

Question: What about the MICs ([5]; S. pneumoniae ATCC 49619, hydrochloride) of the same molecule?
Answer: 0.025 µg/mL

Question: And the MICs ([2]; Cipro^R S. sanguis 941, hydrochloride)?
Answer: 1.56 µg/mL

Question: What about the MIC [6] of the same molecule?
Answer: 0.05 µg/mL

Question: What about the ED50 [3] of the same molecule?
Answer: 20 mg/kg

Question: And the “Cytotoxic concentration, J 744 Macrophage” value (J 744 (mouse macrophage); hydrochloride)?
Answer: 1000 µg/mL

Question: And the “Cytotoxic concentration, V 79 CHL” value ([4]; hydrochloride)?
Answer: 250 µg/mL

Question: And the melting point?
Answer: 300 °C

Question: Which results are given for `Cc1c(N2CCC(O)C(C)(C)C2)c(F)cc2c(=O)c(C(=O)O)cn(C3CC3)c12` (racemic) [Compound 95, (±)-1-Cyclopropyl-6-fluoro-8-methyl-7-(4-hydroxy-3,3-dimethyl-1-piperidinyl)-1,4-dihydro-4-oxo-quinoline-3-carboxylic acid]?
Answer: MIC ([5]; Enterococcus faecalis, ATCC29212, E. faecalis ATCC 29212): 0.05 µg/mL (≈ 0.129 µM); MIC ([5]; Escherichia coli, ATCC25922, E. coli ATCC 25922): 0.2 µg/mL (≈ 0.515 µM); MIC ([5]; Pseudomonas aeruginosa, P. aeruginosa 27853): 3.12 µg/mL (≈ 8.03 µM); MIC ([5]; S. sanguis ATCC 10556 (Viridans Streptococci group)): 0.025 µg/mL (≈ 0.0644 µM); MIC ([5]; Staphylococcus aureus, ATCC 25923 / MSSA, MSSA ATCC 25923): 0.003 µg/mL (≈ 0.00772 µM); MIC ([5]; Streptococcus pneumoniae, ATCC49619, S. pneumoniae ATCC 49619): 0.025 µg/mL (≈ 0.0644 µM); MIC ([2]; Cipro^R S. sanguis 941): 0.4 µg/mL (≈ 1.03 µM); MIC [2, 8]: 0.2 µg/mL (≈ 0.515 µM); MIC ([2]; Streptococcus mitis, Cipro^R S. mitis 938): 0.4 µg/mL (≈ 1.03 µM); MIC [2, 9]: 0.8 µg/mL (≈ 2.06 µM); MIC ([7]; Staphylococcus epidermidis, trovafloxacin-resistant methicillin-resistant S. epidermidis (MRSE) 110, 18 hrs at 37° C, read-out: MICs, Trova-Resist MRSE 110): 0.4 µg/mL (≈ 1.03 µM); MIC ([7]; vancomycin-resistant Enterococcus faecium (VRE) 336, 18 hrs at 37° C, read-out: MICs, VRE 336): 3.12 µg/mL (≈ 8.03 µM); MICs, MRSA 5076 + efflux inhibitor reserpine ([6]; MRSA 5076 with efflux inhibitor reserpine): 0.2 µg/mL; MIC [6]: 0.003 µg/mL (≈ 0.00772 µM); Cytotoxic concentration, J 744 Macrophage (J 744 (mouse macrophage)): >1000 µg/mL; Cytotoxic concentration, V 79 CHL [4]: >1000 µg/mL

Reference: patent US6878713B2, “Generation triple-targeting, chiral, broad-spectrum antimicrobial 7-substituted piperidino-quinolone carboxylic acid derivatives, their preparation, compositions and use as medicaments” (Wockhardt Limited, priority 2001, dated 2005)
